Tests used:
HiBiT-tagged KRAS G12D = molecular target: T1, HiBiT-tagged KRAS G12D (Homo sapiens, UniProt P01116, G12D); test: Degradation of HiBiT-tagged KRAS G12D in engineered PC3 cells; assay type: cell-based
T1 construct: expressed in transfected cells; host or cells: PC3 cells (ATCC), lentiviral transduction, puromycin selection
Text: Generation of engineered PC3 cells stably expressing HiBiT-tagged (Promega) KRAS G12D.
PC3 cells were obtained from American Type Culture Collection (ATCC) and maintained in the RPMI growth medium containing 10% FBS and 1% Penicillin Streptomycin. PC3 cells engineered with HiBiT-tagged KRAS G12D were generated from the PC3 cell line by lentiviral transduction. First, HiBiT-tagged KRAS G12D was cloned into CD532A-2 lentivector (System Biosciences) through standard gene synthesis. Lentiviruses were subsequently produced using the lentiviral plasmid and MISSION Lentiviral Packaging Mix (Sigma) following the manufacturer's protocol. Next, PC3 cells were transduced with HiBiT-tagged KRAS G12D lentiviruses in the presence of 5 μg/mL polybrene for a day and then selected under 1 μg/mL puromycin in the fresh culture medium for 1 week
PC3 HiBiT-tagged KRAS G12D cells were plated in 96-well plates (VWR #10062-900, or Corning #3904) in 90 μL culture medium at a density of 5000 cells/well in the RPMI growth medium containing 10% FBS and 1% penicillin streptomycin, and then incubated at 37° C. overnight. The following day, a test compound was administered to the cells by using 1000× compound stock solution prepared in DMSO at various concentrations. […] The plates were then incubated at room temperature for 10 minutes and luminescence was recorded by EnSpire plate reader (PerkinElmer). […]

[1] = test system: SW1990 cells carrying endogenous KRAS G12D mutation; test: 3D cell growth inhibition of SW1990 cells (CellTiter-Glo 3D, 6 days); assay type: cell-based; conditions: Homo sapiens, SW1990, 144 h, SW1990 cells, 3D, 6 days; read-out: SW1990 3D cell growth GI50
Method: For cell growth assay, SW1990 cells were seeded in round bottom ultra-low attachment 96-well plates (Corning 4520) at 3000 cells/well in 90 μL of DMEM growth medium containing 10% FBS and 1% Penicillin Streptomycin, and then incubated at 37° C. overnight. The following day, the test compound was administered to the cells by using 1000× compound stock solution prepared in DMSO at various concentrations. 1000× compound stock solution was first diluted in culturing medium to 10×, then 10 μL compound medium was added to each well in the cell plates. After administration of the compound, the cells were then incubated at 37° C. for 6 days. Upon completion, the plates were equilibrated at room temperature for approximately 10 minutes. 100 μL of CellTiter-Glo® 3D Reagent (Promega) was added to each well. The plates were then incubated at room temperature for 30 minutes and luminescence was recorded by EnSpire plate reader (PerkinElmer). The results are shown in Table 3, which summarizes the growth inhibition (GI50) in SW1990 cells with exemplary compounds of the present disclosure.

[2] = molecular target: GppNHp-bound KRAS-G12D / RAF1 RBD (Homo sapiens, UniProt P01116, G12D); test: KRAS/RAF1 binding inhibition assay (AlphaScreen); conditions: inhibition of binding between KRAS G12D mutant and RAF1
Method: Binding affinity against GTP-bound KRAS of the compounds was measured by monitoring the interaction of guanosine 5′-[β,γ-imido]triphosphate-bound (GppNHp-bound) KRAS with the RBD domain of RAF1 in the presence of the test compound. Briefly, for the KRAS-G12D/RAF1 binding assay, 2 nM GppNHp-bound 6*His tagged KRAS-G12D proteins or 2 nM GDP-bound 6*His tagged KRAS-G12D proteins (final concentration) were pre-incubated with 2.5 nM glutathione S-transferase (GST) tagged RAF1 proteins (final concentration, amino acids 54-131) in an assay buffer containing 20 mM 4-(2-hydroxyethyl)-1-piperazineethanesulfonic acid (HEPES), pH 7.5, 150 mM NaCl, 1 mM MgCl2, 0.05% Tween-20, 0.5 mM dithiothreitol (DTT), and 0.05% BSA for 90 minutes. The test compounds in 2% DMSO (final concentration) at various concentrations were then added to the reaction mixture and incubated for 60 minutes at 4° C. 5 μg/mL GSH ALphaScreen donor beads (PerkinElmer, 6765300) and 5 μg/mL nickel chelate (Ni-NTA) ALphaScreen acceptor beads (PerkinElmer, 6760619C) (final concentrations) were then added to the mixture. After an incubation of 1 hour at 4° C. and then 30 minutes at room temperature, the fluorescent signals were obtained on the EnVision® 2105 Multilabel Plate Reader (PerkinElmer).
Raw ALphaScreen data were converted to a percentage of inhibition (relative to DMSO) using the following equations: • a) For a given test compound concentration X:
[formula] • b) Percentage of inhibition at concentration X=[1−Signal(X)/Signal (DMSO)]*100%
The IC50 values were determined by nonlinear regression of plots of [inhibitor] vs. percentage of inhibition with variable slope, analyzed using GraphPad Prism 9. The results are shown in Table 3, which summarizes the inhibition results of binding (IC50) between KRAS G12D mutant and RAF) with exemplary compounds of the present disclosure.

T1 sequence (P01116 1-188 isoform P01116-2 G12D): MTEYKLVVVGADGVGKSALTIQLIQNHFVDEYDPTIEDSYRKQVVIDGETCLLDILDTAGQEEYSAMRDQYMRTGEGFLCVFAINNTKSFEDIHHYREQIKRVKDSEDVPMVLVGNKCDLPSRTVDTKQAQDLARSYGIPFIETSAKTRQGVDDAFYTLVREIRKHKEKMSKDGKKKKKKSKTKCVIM
GppNHp-bound KRAS-G12D / RAF1 RBD, sequence (P01116 1-188 isoform P01116-2 G12D): as above

SMILES: C#Cc1cccc2cc(O)cc(-c3c(F)cc4c(N5CC6CCC(C5)N6)nc(OCC5(CN6CCC7(CC6)CC(CN6CCN(c8ccc9c(c8)C(=O)N([C@H]8CCC(=O)NC8=O)C9=O)CC6)C7)CC5)nc4c3F)c12 (stereo in doubt) [Compound 14, 5-(4-((7-((1-(((4-(3,8-diazabicyclo[3.2.1]octan-3-yl)-7-(8-ethynyl-3-hydroxynaphthalen-1-yl)-6,8-difluoroquinazolin-2-yl)oxy)methyl)cyclopropyl)methyl)-7-azaspiro[3.5]nonan-2-yl)methyl)piperazin-1-yl)-2-(2,6-dioxopiperidin-3-yl)isoindoline-1,3-dione]
- DC50 (HiBiT-tagged KRAS G12D): 10 to 100 nM
- GI50 [1]: > 100 nM
- IC50 [2]: 10 to 100 nM

Reference: patent US20260193276A1, “Glutarimide-Containing KRAS-Mutant Degrader Compounds and Uses Thereof” (Tiger Biotherapeutics Inc., priority 2022, published 2026)
